Source: patent US8313771B2, “Phosphazene hydrogels with chemical corss-link, preparation method thereof and use thereof” (Korea Institute of Science and Technology, priority 2007, dated 2012)

Settings: pH 7.4
Method: The solutions were put into a chamber of a Brookfield DV-III+ Rheometer equipped with a thermostatic bath (TC-501). The sol-gel phase transition was observed while raising the temperature at the rate of 0.04° C./min and a shear rate of 0.1 to 1.7 per second.
(maximum) gelling temp. (temperature)” means the temperature where the viscosity of the polymer solution reaches the maximum point, and the term “Max. gel solidity” means the maximum viscosity of the polymer solution.

For “poly[(isoleucine ethyl ester)(aminomethoxypolyethylene glycol 550)(tyramine)phosphazene] [Example 18]”, the Max. gelling temp. was 34 °C.

In the case of “[(isoleucine ethyl ester)(aminomethoxypolyethylene glycol 550)(aminoethylmethacrylate)phosphazene] [Example 2]”, the Max. gelling temp. is reported as 28 °C.

“poly[(isoleucine ethyl ester)(aminomethoxypolyethylene glycol 550)(aminoethylmethacrylate)phosphazene] [Example 4]” showed a Max. gelling temp. of 39 °C.

For “poly[(isoleucine ethyl ester)(aminomethoxypolyethylene glycol 550)(cysteine ethyl ester)phosphazene] [Example 10]”, the Max. gelling temp. was 32 °C.
